Measurements published in patent publication US5849735A, “Tricyclic benzazepine vasopressin antagonists” (American Cyanamid Company, priority 1995, dated 1998).

How the values were obtained:
[1] = target: T1, vasopressin V1 receptor (rat liver plasma membranes) (Rattus norvegicus, UniProt P30560); assay: Binding Assay to Rat Hepatic V1 Receptors
T1 construct: Rat liver plasma membranes expressing the vasopressin V1 receptor subtypes; from tissue; host or cells: rat liver plasma membranes
Method: Binding Assay to Rat Hepatic V1 Receptors
Rat liver plasma membranes expressing the vasopressin V1 receptor subtypes are isolated by sucrose density gradient according to the method described by Lesko et al., (1973). These membranes are quickly suspended in 50.0 mM Tris.HCl buffer, pH 7.4, containing 0.2% bovine serum albumin (BSA) and 0.1 mM phenylmethylsulfonylfluoride (PMSF) and kept frozen at -70° C. until used in subsequent binding experiments. For binding experiments, the following is added to the wells of a ninety-six well format microtiter plate: […] of […] buffer containing 10.0 mM MgCl2, 0.2% heat inactivated BSA and a mixture of protease inhibitors: leupeptin, 1.0 mg %; aprotinin, 1.0 mg %; 1,10-phenanthroline,2.0 mg %; trypsin inhibitor, 10.0 mg % and 0.1 mM PMSF, 20.0 ml of [phenylalanyl-3,4,5, -^3 H] vasopressin (S.A. 45.1 Ci/mmole) […], and the reaction initiated by the addition of 80 ml of tissue membranes containing 20 mg of tissue protein. The plates are kept undisturbed on the bench top at room temperature for 120 min. to reach equilibrium. Non-specific samples are assayed in the presence of 0.1 mM of the unlabeled […] phenylalanylvasopressin, added in 20.0 ml volume.
For test compounds, these are solubilized in 50% dimethylsulfoxide (DMSO) and added in 20.0 ml volume to a final incubation volume of […]. Upon completion of binding, the content of each well is filtered off, using a Brandel® cell Harvester (Gaithersburg, Md.). The radioactivity trapped on the filter disk by the ligand-receptor complex is assessed by liquid scintillation counting in a Packard LS Counter, with an efficiency of 65% for tritium.

[2] = target: T2, vasopressin V2 receptor (rat kidney medullary) (Rattus norvegicus, UniProt Q00788); assay: Binding Assay to Rat Kidney Medullary V2 Receptors
T2 construct: Medullary tissues from rat kidneys are dissected out; from tissue; host or cells: rat kidney medulla membranes
T2 sequence (Q00788 whole entry): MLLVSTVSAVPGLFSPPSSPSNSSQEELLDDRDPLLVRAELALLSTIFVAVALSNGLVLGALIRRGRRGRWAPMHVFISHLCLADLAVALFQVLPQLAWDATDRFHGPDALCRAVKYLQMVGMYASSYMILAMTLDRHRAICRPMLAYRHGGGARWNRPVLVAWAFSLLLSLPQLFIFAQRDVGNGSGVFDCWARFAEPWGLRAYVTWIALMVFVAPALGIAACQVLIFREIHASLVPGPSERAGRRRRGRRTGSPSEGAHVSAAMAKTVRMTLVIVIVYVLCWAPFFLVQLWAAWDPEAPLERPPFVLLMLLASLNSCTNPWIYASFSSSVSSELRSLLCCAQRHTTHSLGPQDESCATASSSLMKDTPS
Method: Binding Assay to Rat Kidney Medullary V2 Receptors
Medullary tissues from rat kidneys are dissected out, cut into small pieces and soaked in a […] sodium chloride solution containing 1.0 mM EDTA with many changes of the liquid phase, until the solution is clear of blood. […] The tissue is homogenized in a 0.25M sucrose solution containing 1.0 mM EDTA and 0.1 mM PMSF using a Potter-Elvehjem homogenizer with a teflon pestle. The homogenate is filtered through several layers (4 layers) of cheese cloth. The filtrate is rehomogenized using a dounce homogenizer, with a tight fitting pestle. The final homogenate is centrifuged at 1500×g for 15 min. The nuclear pellet is discarded and the supernatant fluid recentrifuged at 40,000×g for 30 min. The resulting pellet formed contains a dark inner part with the exterior, slightly pink. The pink outer part is suspended in a small amount of 50.0 mM Tris.HCl buffer, pH 7.4. The protein content is determined by the Lowry's method (Lowry et al., J. Biol. Chem., 1953). The membrane suspension is stored at -70° C., in 50.0 mM Tris.HCl, containing 0.2% inactivated BSA and 0.1 mM PMSF in aliquots of 1.0 ml containing 10.0 mg protein per ml of suspension until sue in subsequent binding experiments.
For binding experiments, the following is added in ml volume to wells of a 96 well format of a microtiter plate: 100.0 ml of 100.0 mM Tris.HCl buffer containing 0.2% heat inactivated BSA, 10.0 mM MgCL2 and a mixture of protease inhibitors: leupeptin, 1.0 mg %; aprotinin, 1.0 mg % 1,10-phenanthroline, 2.0 mg %; trypsin inhibitor, and 0.1 mM PMSF, 20.0 ml of [^3 H] Arginine^8, vasopressin (S.A. 75.0 Ci/mmole) at 0.8 nM and the reaction initiated by the addition of 80.0 ml of tissue membranes (200.0 mg tissue protein). The plates are left undisturbed on the bench top for 120 minutes to reach equilibrium. Non-specific binding is assessed in the presence of 1.0 mM of unlabeled ligand, added in 20 ml volume. For test compounds, these are solubilized in 50% dimethylsulfoxide (DMSO) and added in 20.0 ml volume to a final incubation volume of […]. Upon completion of binding, the content of each well is filtered off, using a Brandel® cell Harvester (Gaithersburg, Md.). The radioactivity trapped on the filter disk by the ligand-receptor complex is assessed by liquid scintillation counting in a Parkard LS Counter, with an efficiency of 65% for tritium.

[3] = target: T3, oxytocin receptor (rat uteri) (Rattus norvegicus, UniProt P70536); assay: Oxytocin Receptor Binding; parameters: species or system rat (Sprague-Dawley); conditions: for IC50: [3H]oxytocin displacement
T3 construct: The uteri are dissected out, cleaned of fat and connective tissues; from tissue; host or cells: uteri of diethylstilbestrol-treated female Sprague-Dawley rats
T3 sequence (P70536 1-388): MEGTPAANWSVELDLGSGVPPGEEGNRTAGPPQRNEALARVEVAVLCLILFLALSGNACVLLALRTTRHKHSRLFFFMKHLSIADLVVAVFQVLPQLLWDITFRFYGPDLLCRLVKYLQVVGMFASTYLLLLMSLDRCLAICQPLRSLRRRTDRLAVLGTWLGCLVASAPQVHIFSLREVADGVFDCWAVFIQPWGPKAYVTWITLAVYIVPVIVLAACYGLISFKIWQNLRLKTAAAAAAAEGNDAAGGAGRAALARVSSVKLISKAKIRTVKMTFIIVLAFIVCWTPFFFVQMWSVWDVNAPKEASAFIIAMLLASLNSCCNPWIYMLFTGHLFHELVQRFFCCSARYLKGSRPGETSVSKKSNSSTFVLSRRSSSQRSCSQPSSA
Method: Oxytocin Receptor Binding
Female Sprague-Dawley rats weighing approximately 200-250 g are injected intramuscularly (i.m.) with 0.3 mg/kg of body weight of diethylstilbestrol (DES). The rats are sacrificed 18 hours later under pentobarbital anesthesia. The uteri are dissected out, cleaned of fat and connective tissues and rinsed in 50 ml of normal saline. The tissue pooled from six rats is homogenized in 50 ml of […] Tris. HCl, containing 0.5 mM dithiothreitol and 1.0 mM EDTA, adjusted to pH 7.4, using a polytron at setting 6 with three passes of 10 sec each. The homogenate is passed through two (2) layers of cheesecloth and the filtrate centrifuged at 1000×g for 10 minutes. The clear supernatant is removed and recentrifuged at 165,000×g for 30 minutes. The resulting pellet containing the oxytocin receptors is resuspended in 50.0 mM Tris.HCl containing 5.0 mM MgCl2 at pH 7.4, to give a protein concentration of 2.5 mg/ml of tissue suspension. This preparation is used in subsequent binding assays with [^3 H]oxytocin.
Binding of 3,5-[^3 H]Oxytocin ([^3 H]OT) to its receptors is done in microtiter plates using [^3 H]OT, at various concentrations, in an assay buffer of 50.0 mM Tris.HCI, pH 7.4 and containing 5.0 mM MgCl2, and a mixture of protease inhibitors: BSA, 0.1 mg; aprotinin, 1.0 mg; 1,10-phenanthroline, 2.0 mg; […], 10.0 mg; and PMSF, 0.3 mg per 100 ml of buffer solution. Non-specific binding is determined in the presence of 1.0 uM unlabeled OT. The binding reaction is terminated after 60 minutes, at 22° C., by rapid filtration through glass fiber filters using a Brandel® cell harvester (Biomedical Research and Development Laboratories, Inc., Gaithersburg, Md.). Competition experiments are conducted at equilibrium using 1.0 nM [^3 H]OT and varying the concentration of the displacing agents. The concentrations of agent displacing 50% of [^3 H]OT at its sites (IC50) are calculated by a computer assisted LUNDON-2 program (LUNDON SOFTWARE INC., Ohio, USA).

T1 sequence (P30560 whole entry): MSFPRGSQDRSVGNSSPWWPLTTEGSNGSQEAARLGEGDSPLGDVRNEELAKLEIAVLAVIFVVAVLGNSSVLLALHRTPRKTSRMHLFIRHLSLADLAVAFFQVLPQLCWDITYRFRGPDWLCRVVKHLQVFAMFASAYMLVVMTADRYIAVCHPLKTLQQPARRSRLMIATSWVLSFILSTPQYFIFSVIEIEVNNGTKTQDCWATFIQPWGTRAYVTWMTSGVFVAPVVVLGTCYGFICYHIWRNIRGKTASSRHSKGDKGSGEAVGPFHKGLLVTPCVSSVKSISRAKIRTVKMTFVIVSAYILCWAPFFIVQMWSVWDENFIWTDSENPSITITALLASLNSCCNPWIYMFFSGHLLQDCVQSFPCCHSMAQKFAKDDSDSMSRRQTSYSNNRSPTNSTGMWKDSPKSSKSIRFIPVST

Compound	IC50 ([1]; rat hepatic V1 receptors) [nM]	IC50 ([2]; rat kidney medullary V2 receptors) [nM]	inhibition at 1 µM [3] [%]	inhibition at 1 µM ([1]; 2 h, rat hepatic V1) [%]	V2 % ([2]; rat kidney V2, "at μM" (concentration not given)) [%]	IC50 [3] [nM]	inhibition at 10 µM [3] [%]	inhibition at 1 µM ([2]; rat kidney V2, at 1 μM) [%]	inhibition at 10 µM ([1]; 2 h, rat hepatic V1, at 10 μM) [%]	inhibition at 10 µM ([2]; rat kidney V2, at 10 μM) [%]
Cc1ccc(F)cc1C(=O)Nc1ccc(C(=O)N2Cc3ccccc3Oc3ccccc32)cn1 [Example 1, N-[5-(Dibenz[b,f][1,4]oxazepin-10(11H)-ylcarbonyl)-2-pyridinyl]-5-fluoro-2-methylbenzamide]	240	54	12							
O=C(Nc1ccc(C(=O)N2Cc3ccccc3Cc3ccccc32)cn1)c1ccccc1-c1ccccc1 [Example 12, N-[5-[(6,11-Dihydro-5H-dibenz[b,e]azepin-5-yl)carbonyl]-2-pyridinyl][1,1'-biphenyl]-2-carboxamide]				100	90	610	76			
O=C(c1ccc(-c2ccccc2)cc1)N1Cc2ccccc2Nc2ccccc21 [Example 25]				100		113	94	39		
O=C(c1ccccc1)c1ccc(C(=O)N2Cc3ccccc3CCc3ccccc32)cc1 [Example 33, 5-(4-Benzoylbenzoyl)5,6,11,12-tetrahydrodibenz[b,f]azocine]			37						10	16
